Results: the supplement of paper PMC5579334

What was measured:
YST-1 = assay: relative IC50 (inflection point of fitted dose-response curve, CellTiter-Glo viability, 72 h; top asymptote may be below 50% inhibition); higher = less potent
Method in brief: (§1)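 After seeding 750–1000 cells per well of MPNST cell lines or primary human Schwann cells into 384-well plates preprinted with each compound at five concentrations in 10-fold steps, plates were kept 72 h at 37 °C, 5% CO2. Viability was read as CellTiter-Glo ATP luminescence relative to vehicle and positive-control wells, with duplicates averaged where present. The data were fitted with four-parameter logistic models. Drug sensitivity score and relative IC50, censored at the top concentration, derive from the fits, and percent inhibition refers to the top concentration.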

S462 = assay: as above
Method in brief: as §1

HSC2 [1] = assay: as above
Method in brief: as §1

HS-Sch-2 = assay: as above
Method in brief: as §1

S1507-2 [2] = assay: as above
Method in brief: as §1

HS-PSS [3] = assay: as above
Method in brief: as §1

HSC1 [4] = assay: as above
Method in brief: as §1

ST8814 [5] = assay: as above
Method in brief: as §1

STS26T [6] = assay: as above
Method in brief: as §1

HSC2 [7] = assay: relative IC50 (inflection point of fitted dose-response curve, CellTox-Green cytotoxicity, 72 h; top asymptote may be below 50%); higher = less potent
Method in brief: (§2)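 For 72 h at 37 °C, MPNST cell lines and primary human Schwann cells were exposed in 384-well plates to five 10-fold compound dilutions. CellTox-Green, added before seeding at a final 1:1000 dilution, gave fluorescence from DNA released by disrupted cells. Signals were scaled to vehicle and positive-control wells, cultures failing plate quality control were left out, and four-parameter logistic fits were applied. Relative IC50 and drug sensitivity score were derived from the fits, with IC50 censored at the top concentration.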

S1507-2 [8] = assay: as above
Method in brief: as §2

HS-PSS [9] = assay: as above
Method in brief: as §2

HSC1 [10] = assay: as above
Method in brief: as §2

ST8814 [11] = assay: as above
Method in brief: as §2

STS26T [12] = assay: as above
Method in brief: as §2

Cn1cc(CNCC2CCN(c3ncc(C(=O)NO)cn3)CC2)c2ccccc21 [Quisinostat]
relative IC50 (YST-1): 8.58 nM
relative IC50 (S462): 20.4 nM
relative IC50 (HSC2 [1]): 56.8 nM
relative IC50 (HS-Sch-2): 45.5 nM
relative IC50 (S1507-2 [2]): 18.3 nM
relative IC50 (HS-PSS [3]): 42.8 nM
relative IC50 (HSC1 [4]): 34.5 nM
relative IC50 (ST8814 [5]): 16.6 nM
relative IC50 (STS26T [6]): 43.4 nM
relative IC50 (HSC2 [7]): 226 nM
relative IC50 (S1507-2 [8]): 44.8 nM
relative IC50 (HS-PSS [9]): 131 nM
relative IC50 (HSC1 [10]): 208 nM
relative IC50 (ST8814 [11]): 56.1 nM
relative IC50 (STS26T [12]): 105 nM

C/C(=C\c1csc(C)n1)[C@@H]1C[C@@H]2O[C@]2(C)CCC[C@H](C)[C@H](O)[C@@H](C)C(=O)C(C)(C)[C@@H](O)CC(=O)N1 [Ixabepilone]
relative IC50 (YST-1): 361 nM
relative IC50 (S462): 335 nM
relative IC50 (HSC2 [1]): 248 nM
relative IC50 (HS-Sch-2): 313 nM
relative IC50 (S1507-2 [2]): 332 nM
relative IC50 (HS-PSS [3]): 392 nM
relative IC50 (HSC1 [4]): 115 nM
relative IC50 (ST8814 [5]): 363 nM
relative IC50 (STS26T [6]): 350 nM
relative IC50 (HSC2 [7]): 354 nM
relative IC50 (S1507-2 [8]): 370 nM
relative IC50 (HS-PSS [9]): > 1000 nM
relative IC50 (HSC1 [10]): 283 nM
relative IC50 (ST8814 [11]): 341 nM
relative IC50 (STS26T [12]): 316 nM

Nc1ccccc1NC(=O)c1ccc(CNc2nccc(-c3cccnc3)n2)cc1 [Mocetinostat]
relative IC50 (YST-1): 530 nM
relative IC50 (S462): 354 nM
relative IC50 (HSC2 [1]): 818 nM
relative IC50 (HS-Sch-2): 1400 nM
relative IC50 (S1507-2 [2]): 1840 nM
relative IC50 (HS-PSS [3]): 2200 nM
relative IC50 (HSC1 [4]): 921 nM
relative IC50 (ST8814 [5]): 1610 nM
relative IC50 (STS26T [6]): 1400 nM
relative IC50 (HSC2 [7]): 2710 nM
relative IC50 (S1507-2 [8]): 3730 nM
relative IC50 (HS-PSS [9]): 2650 nM
relative IC50 (HSC1 [10]): 3390 nM
relative IC50 (ST8814 [11]): 3100 nM
relative IC50 (STS26T [12]): 1720 nM

C#Cc1cccc(Nc2ncnc3cc(OC)c(OCCCCCCC(=O)NO)cc23)c1 [CUDC-101]
relative IC50 (YST-1): 159 nM
relative IC50 (S462): 732 nM
relative IC50 (HSC2 [1]): 545 nM
relative IC50 (HS-Sch-2): 438 nM
relative IC50 (S1507-2 [2]): 909 nM
relative IC50 (HS-PSS [3]): 699 nM
relative IC50 (HSC1 [4]): 470 nM
relative IC50 (ST8814 [5]): 801 nM
relative IC50 (STS26T [6]): 1820 nM
relative IC50 (HSC2 [7]): 984 nM
relative IC50 (S1507-2 [8]): 1810 nM
relative IC50 (HS-PSS [9]): 1850 nM
relative IC50 (HSC1 [10]): 1130 nM
relative IC50 (ST8814 [11]): 1270 nM
relative IC50 (STS26T [12]): 2500 nM

C=CCNC1=C2C[C@@H](C)C[C@H](OC)[C@H](O)[C@@H](C)/C=C(\C)[C@H](OC(N)=O)[C@@H](OC)/C=C\C=C(/C)C(=O)NC(=CC1=O)C2=O [Tanespimycin]
relative IC50 (YST-1): 49.4 nM
relative IC50 (S462): 310 nM
relative IC50 (HSC2 [1]): 380 nM
relative IC50 (HS-Sch-2): 128 nM
relative IC50 (S1507-2 [2]): 170 nM
relative IC50 (HS-PSS [3]): 157 nM
relative IC50 (HSC1 [4]): 421 nM
relative IC50 (ST8814 [5]): 158 nM
relative IC50 (STS26T [6]): 108 nM
relative IC50 (HSC2 [7]): 258 nM
relative IC50 (S1507-2 [8]): 397 nM
relative IC50 (HS-PSS [9]): 460 nM
relative IC50 (HSC1 [10]): 321 nM
relative IC50 (ST8814 [11]): 729 nM
relative IC50 (STS26T [12]): 160 nM

CC(C)c1cc(-c2n[nH]c(=O)n2-c2ccc3c(ccn3C)c2)c(O)cc1O [Ganetespib]
relative IC50 (YST-1): 36.8 nM
relative IC50 (S462): 25 nM
relative IC50 (HSC2 [1]): 17.2 nM
relative IC50 (HS-Sch-2): 23.2 nM
relative IC50 (S1507-2 [2]): 42.4 nM
relative IC50 (HS-PSS [3]): 42.7 nM
relative IC50 (HSC1 [4]): 14.9 nM
relative IC50 (ST8814 [5]): 18.1 nM
relative IC50 (STS26T [6]): 24.4 nM
relative IC50 (HSC2 [7]): 18.5 nM
relative IC50 (S1507-2 [8]): 46.4 nM
relative IC50 (HS-PSS [9]): 37.5 nM
relative IC50 (HSC1 [10]): 17.8 nM
relative IC50 (ST8814 [11]): 11.5 nM
relative IC50 (STS26T [12]): 33 nM

Oc1ncnc2[nH]ncc12 [Allopurinol]
relative IC50 (YST-1): > 10000 nM
relative IC50 (S462): > 10000 nM
relative IC50 (HSC2 [1]): > 10000 nM
relative IC50 (HS-Sch-2): > 10000 nM
relative IC50 (S1507-2 [2]): > 10000 nM
relative IC50 (HS-PSS [3]): > 10000 nM
relative IC50 (HSC1 [4]): > 10000 nM
relative IC50 (ST8814 [5]): > 10000 nM
relative IC50 (STS26T [6]): > 10000 nM
relative IC50 (HSC2 [7]): > 10000 nM
relative IC50 (S1507-2 [8]): > 10000 nM
relative IC50 (HS-PSS [9]): > 10000 nM
relative IC50 (HSC1 [10]): > 10000 nM
relative IC50 (ST8814 [11]): > 10000 nM
relative IC50 (STS26T [12]): > 10000 nM

CC(C)C[C@H](NC(=O)[C@H](CCc1ccccc1)NC(=O)CN1CCOCC1)C(=O)N[C@@H](Cc1ccccc1)C(=O)N[C@@H](CC(C)C)C(=O)[C@@]1(C)CO1 [Carfilzomib]
relative IC50 (YST-1): 4.71 nM
relative IC50 (S462): 4.5 nM
relative IC50 (HSC2 [1]): 9.67 nM
relative IC50 (HS-Sch-2): 2.75 nM
relative IC50 (S1507-2 [2]): 17.2 nM
relative IC50 (HS-PSS [3]): 11.7 nM
relative IC50 (HSC1 [4]): 11.5 nM
relative IC50 (ST8814 [5]): 8.99 nM
relative IC50 (STS26T [6]): 8.28 nM
relative IC50 (HSC2 [7]): 23 nM
relative IC50 (S1507-2 [8]): 25.7 nM
relative IC50 (HS-PSS [9]): 25.1 nM
relative IC50 (HSC1 [10]): 24.6 nM
relative IC50 (ST8814 [11]): 12 nM
relative IC50 (STS26T [12]): 8.79 nM

CO[C@H]1/C=C\C=C(/C)C(=O)NC2=CC(=O)C(NCCN(C)C)=C(C[C@@H](C)C[C@H](OC)[C@H](O)[C@@H](C)/C=C(\C)[C@@H]1OC(N)=O)C2=O [Alvespimycin]
relative IC50 (YST-1): 24.4 nM
relative IC50 (S462): 48.1 nM
relative IC50 (HSC2 [1]): 134 nM
relative IC50 (HS-Sch-2): 47.3 nM
relative IC50 (S1507-2 [2]): 78.4 nM
relative IC50 (HS-PSS [3]): 45.5 nM
relative IC50 (HSC1 [4]): 132 nM
relative IC50 (ST8814 [5]): 54.9 nM
relative IC50 (STS26T [6]): 72 nM
relative IC50 (HSC2 [7]): 187 nM
relative IC50 (S1507-2 [8]): 106 nM
relative IC50 (HS-PSS [9]): 49 nM
relative IC50 (HSC1 [10]): 198 nM
relative IC50 (ST8814 [11]): 106 nM
relative IC50 (STS26T [12]): 95.7 nM

CC(=O)[C@]1(O)Cc2c(O)c3c(c(O)c2[C@@H](O[C@H]2C[C@H](N)[C@H](O)[C@H](C)O2)C1)C(=O)c1ccccc1C3=O [Idarubicin]
relative IC50 (YST-1): 8.54 nM
relative IC50 (S462): 9.47 nM
relative IC50 (HSC2 [1]): 22.6 nM
relative IC50 (HS-Sch-2): 39.7 nM
relative IC50 (S1507-2 [2]): 25.6 nM
relative IC50 (HS-PSS [3]): 103 nM
relative IC50 (HSC1 [4]): 19.7 nM
relative IC50 (ST8814 [5]): 24.9 nM
relative IC50 (STS26T [6]): 14.4 nM
relative IC50 (HSC2 [7]): 204 nM
relative IC50 (S1507-2 [8]): 54.1 nM
relative IC50 (HS-PSS [9]): 162 nM
relative IC50 (HSC1 [10]): 107 nM
relative IC50 (ST8814 [11]): 27 nM
relative IC50 (STS26T [12]): 10.8 nM

Nc1ncnc2c1nc(N)n2[C@@H]1O[C@H](CO)[C@@H](O)[C@H]1O [8-amino-adenosine]
relative IC50 (YST-1): 647 nM
relative IC50 (S462): 1080 nM
relative IC50 (HSC2 [1]): 2250 nM
relative IC50 (HS-Sch-2): 1230 nM
relative IC50 (S1507-2 [2]): 885 nM
relative IC50 (HS-PSS [3]): 1620 nM
relative IC50 (HSC1 [4]): 1360 nM
relative IC50 (ST8814 [5]): 1110 nM
relative IC50 (STS26T [6]): 1100 nM
relative IC50 (HSC2 [7]): 7010 nM
relative IC50 (S1507-2 [8]): 2820 nM
relative IC50 (HS-PSS [9]): 4130 nM
relative IC50 (HSC1 [10]): 6650 nM
relative IC50 (ST8814 [11]): 1730 nM
relative IC50 (STS26T [12]): 1060 nM
